From US8268859B2, “Glucocorticoid mimetics, methods of making them, pharmaceutical compositions and uses thereof” (Boehringer Ingelheim International GmbH, priority 2008, dated 2012)
≈ marks a conversion by molar mass, not a printed value. Like-named read-outs stand apart in the source and are kept apart here.

What was measured:
[1] = High throughput solubility; type: physicochemical; details: aqueous buffer (pION system solution), pH 7, aqueous buffer, kinetic from dmso stock
[2] = Human microsomal stability; type: in vitro ADME; details: pH 7.4; human liver microsomes; read-out: human liver microsome half life
[3] = target: T1, Potassium Channel HERG (Homo sapiens, UniProt Q12809); assay: hERG assays (either hERG binding assay or hERG patch clamp assay); type: cell-based; details: Table 3, not specified per compound
T1 construct: expressed in transfected cells; host or cells: HEK-293 cells
T1 sequence (Q12809 whole entry): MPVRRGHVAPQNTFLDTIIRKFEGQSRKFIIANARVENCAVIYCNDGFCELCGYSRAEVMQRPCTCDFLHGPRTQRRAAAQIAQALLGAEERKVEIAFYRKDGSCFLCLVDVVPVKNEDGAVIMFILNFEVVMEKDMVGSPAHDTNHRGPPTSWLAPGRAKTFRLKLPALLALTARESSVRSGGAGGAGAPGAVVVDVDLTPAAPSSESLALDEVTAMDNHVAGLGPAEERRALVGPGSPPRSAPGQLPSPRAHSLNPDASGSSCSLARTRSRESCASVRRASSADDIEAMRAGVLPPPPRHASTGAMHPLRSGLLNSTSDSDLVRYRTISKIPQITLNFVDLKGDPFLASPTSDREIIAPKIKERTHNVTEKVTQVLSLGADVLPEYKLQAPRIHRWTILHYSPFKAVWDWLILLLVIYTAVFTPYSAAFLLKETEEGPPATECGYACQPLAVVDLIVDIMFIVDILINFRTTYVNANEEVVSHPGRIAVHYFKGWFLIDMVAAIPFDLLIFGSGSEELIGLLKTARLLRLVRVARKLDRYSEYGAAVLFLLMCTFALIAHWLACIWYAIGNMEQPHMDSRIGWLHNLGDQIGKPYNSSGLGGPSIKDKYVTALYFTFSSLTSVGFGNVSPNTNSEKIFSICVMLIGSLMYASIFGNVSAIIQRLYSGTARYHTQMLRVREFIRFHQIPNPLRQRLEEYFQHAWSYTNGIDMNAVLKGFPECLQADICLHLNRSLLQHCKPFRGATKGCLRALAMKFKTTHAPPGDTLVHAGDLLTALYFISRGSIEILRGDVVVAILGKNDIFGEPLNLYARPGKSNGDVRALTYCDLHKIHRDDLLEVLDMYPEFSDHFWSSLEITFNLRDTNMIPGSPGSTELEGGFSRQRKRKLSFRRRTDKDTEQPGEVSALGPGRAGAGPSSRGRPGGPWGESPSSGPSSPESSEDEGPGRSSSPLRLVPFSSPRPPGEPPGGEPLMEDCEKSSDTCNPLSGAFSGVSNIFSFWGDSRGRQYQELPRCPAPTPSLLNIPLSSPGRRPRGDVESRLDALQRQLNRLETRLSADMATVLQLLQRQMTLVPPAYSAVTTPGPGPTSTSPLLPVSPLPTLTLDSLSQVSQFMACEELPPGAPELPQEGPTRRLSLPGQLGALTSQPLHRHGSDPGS

[4] = target: human recombinant CYP3A4 (Homo sapiens, UniProt P08684); assay: Cytochrome P450 inhibition assay (substrate 7-benzyloxy-4-(trifluoromethyl)coumarin); type: in vitro ADME;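 note: compounds preincubated at least 10 min at 37 °C before adding enzyme plus substrate, reaction run 30 min at 37 °C, ketoconazole standard curve on every plate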
Chain of human recombinant CYP3A4 (P08684 whole entry): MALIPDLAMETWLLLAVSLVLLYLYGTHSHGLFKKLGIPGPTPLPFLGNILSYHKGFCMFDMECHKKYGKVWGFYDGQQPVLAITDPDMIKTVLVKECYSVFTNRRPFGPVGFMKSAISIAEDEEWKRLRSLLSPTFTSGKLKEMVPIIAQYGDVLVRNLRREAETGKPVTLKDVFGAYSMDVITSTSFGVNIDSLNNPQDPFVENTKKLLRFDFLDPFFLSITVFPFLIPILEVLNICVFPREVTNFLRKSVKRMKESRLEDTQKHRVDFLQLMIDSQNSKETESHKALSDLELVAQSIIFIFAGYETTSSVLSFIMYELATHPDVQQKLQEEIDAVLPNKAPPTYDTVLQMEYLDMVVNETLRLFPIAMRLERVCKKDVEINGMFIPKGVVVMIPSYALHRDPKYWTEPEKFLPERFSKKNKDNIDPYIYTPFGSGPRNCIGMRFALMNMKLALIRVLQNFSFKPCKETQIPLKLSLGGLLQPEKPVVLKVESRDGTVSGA

[5] = target: T2, human glucocorticoid receptor (GR) complex (Homo sapiens, UniProt P04150); assay: Glucocorticoid receptor fluorescence polarization competitive binding assay;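 note: GR complex expressed in an insect system, wells lacking compound give full signal, excess unlabeled dexamethasone defines the blank, IC50 from logistic curve fit of polarization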
T2 construct: made in house; host or cells: insect expression system (baculovirus lysate)
T2 sequence (P04150 1-777): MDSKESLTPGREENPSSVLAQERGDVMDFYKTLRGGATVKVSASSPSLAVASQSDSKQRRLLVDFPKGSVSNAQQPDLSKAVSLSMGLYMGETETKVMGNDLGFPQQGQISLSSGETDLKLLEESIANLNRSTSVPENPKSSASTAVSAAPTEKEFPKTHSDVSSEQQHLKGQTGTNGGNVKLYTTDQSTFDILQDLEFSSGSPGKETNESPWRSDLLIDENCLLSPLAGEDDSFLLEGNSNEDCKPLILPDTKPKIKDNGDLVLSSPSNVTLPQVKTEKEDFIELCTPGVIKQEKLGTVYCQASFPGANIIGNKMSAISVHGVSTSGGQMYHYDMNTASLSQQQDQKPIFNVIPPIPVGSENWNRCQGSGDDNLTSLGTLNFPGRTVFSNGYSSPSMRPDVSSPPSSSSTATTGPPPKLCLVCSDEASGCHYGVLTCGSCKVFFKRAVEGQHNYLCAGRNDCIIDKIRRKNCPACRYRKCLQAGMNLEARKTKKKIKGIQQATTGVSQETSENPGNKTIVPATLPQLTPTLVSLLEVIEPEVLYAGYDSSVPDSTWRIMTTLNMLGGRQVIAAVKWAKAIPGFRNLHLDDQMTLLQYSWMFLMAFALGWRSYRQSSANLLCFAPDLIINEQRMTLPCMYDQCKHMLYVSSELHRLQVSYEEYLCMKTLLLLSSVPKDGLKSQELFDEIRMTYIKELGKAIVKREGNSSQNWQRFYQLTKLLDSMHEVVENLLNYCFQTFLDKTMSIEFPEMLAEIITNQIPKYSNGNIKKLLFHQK

[6] = Table 1, competition with TAMRA-labeled dexamethasone, read-out: GR IC50

Structure (SMILES)	solubility [1] [µg/mL]	half-life [2] [min]	IC50 ([4]; Table 1, read-out: CYP3A4 IC50) [µM]	IC50 [5, 6] [nM]	further results
CC(C)S(=O)(=O)c1cc2cc(CC(O)(CC(C)(C)c3cccc(F)c3S(C)(=O)=O)C(F)(F)F)[nH]c2cn1 (stereo not drawn) [1,1,1-Trifluoro-4-(3-fluoro-2-methanesulfonylphenyl)-4-methyl-2-[5-(propane-2-sulfonyl)-1H-pyrrolo[2,3-c]pyridin-2-ylmethyl]pentan-2-ol]			> 30	210	
CCS(=O)(=O)c1cc2cc(CC(O)(CC(C)(C)c3cccc4c3S(=O)(=O)C=C4)C(F)(F)F)[nH]c2cn1 (stereo not drawn) [4-(1,1-Dioxo-1H-1λ^6-benzo[b]thiophen-7-yl)-2-(5-ethanesulfonyl-1H-pyrrolo[2,3-c]pyridin-2-ylmethyl)-1,1,1-trifluoro-4-methylpentan-2-ol]			4.1	58	
CC(C)(CC(O)(Cc1cc2nc(S(C)(=O)=O)ccc2[nH]1)C(F)(F)F)c1cc(Cl)ccc1S(C)(=O)=O (stereo not drawn) [4-(5-Chloro-2-methanesulfonylphenyl)-1,1,1-trifluoro-2-(5-methanesulfonyl-1H-pyrrolo[3,2-b]pyridin-2-ylmethyl)-4-methylpentan-2-ol]			4.1		IC50 [5]: 8 nM
CCCS(=O)(=O)c1cc2cc(CC(O)(CC(C)(C)c3cc(Cl)ccc3S(C)(=O)=O)C(F)(F)F)[nH]c2cn1 (stereo not drawn) [4-(5-Chloro-2-methanesulfonylphenyl)-1,1,1-trifluoro-4-methyl-2-[5-(propane-1-sulfonyl)-1H-pyrrolo[2,3-c]pyridin-2-ylmethyl]pentan-2-ol]			0.9	14	
CC(C)(CC(O)(Cc1cc2cc(S(C)(=O)=O)ncc2[nH]1)C(F)(F)F)c1cccc2ccsc12 (stereo not drawn) [4-Benzo[b]thiophen-7-yl-1,1,1-trifluoro-2-(5-methanesulfonyl-1H-pyrrolo[2,3-c]pyridin-2-ylmethyl)-4-methylpentan-2-ol]			2.7		IC50 [5]: 10 nM
CC(C)(C[C@@](O)(Cc1cc2nc(S(C)(=O)=O)ncc2[nH]1)C(F)(F)F)c1ccc(F)cc1C(N)=O [5-Fluoro-2-[(R)-4,4,4-trifluoro-3-hydroxy-3-(2-methanesulfonyl-5H-pyrrolo[3,2-d]pyrimidin-6-ylmethyl)-1,1-dimethylbutyl]benzamide]			11	210	
CC(C)(C[C@@](O)(Cc1cc2nc(S(C)(=O)=O)ccc2[nH]1)C(F)(F)F)c1ccc(F)cc1C(N)=O [5-Fluoro-2-[(R)-4,4,4-trifluoro-3-hydroxy-3-(5-methanesulfonyl-1H-pyrrolo[3,2-b]pyridin-2-ylmethyl)-1,1-dimethyl-butyl]benzamide]			7		IC50 [5]: 27 nM
CC(C)(C[C@@](O)(Cc1cc2cc(S(C)(=O)=O)ncc2[nH]1)C(F)(F)F)c1cccc(Br)c1 [(R)-4-(3-Bromophenyl)-1,1,1-trifluoro-2-(5-methanesulfonyl-1H-pyrrolo[2,3-c]pyridin-2-ylmethyl)-4-methylpentan-2-ol]			20		IC50 [5]: 9 nM
CC(C)(C[C@@](O)(Cc1cc2nc(S(C)(=O)=O)ccc2[nH]1)C(F)(F)F)c1cccc(Br)c1 [(R)-4-(3-Bromophenyl)-1,1,1-trifluoro-2-(5-methanesulfonyl-1H-pyrrolo[3,2-b]pyridin-2-ylmethyl)-4-methylpentan-2-ol]			15	14	
CCS(=O)(=O)c1cc2cc(C[C@](O)(CC(C)(C)c3cc(Cl)cc4c3OCC4)C(F)(F)F)[nH]c2cn1 [(R)-4-(5-Chloro-2,3-dihydrobenzofuran-7-yl)-2-(5-ethanesulfonyl-1H-pyrrolo[2,3-c]pyridin-2-ylmethyl)-1,1,1-trifluoro-4-methylpentan-2-ol]			1.8	7	
CC(C)(C[C@@](O)(Cc1cc2cc(S(C)(=O)=O)ncc2[nH]1)C(F)(F)F)c1ccc(Cl)cc1S(C)(=O)=O [drawing 97]	40 (≈ 72.3 µM)	17			IC50 [3]: > 10 µM

Now from value to molecule, other results behind:

solubility [1] [µg/mL]	half-life [2] [min]	IC50 ([4]; Table 1, read-out: CYP3A4 IC50) [µM]	IC50 [5, 6] [nM]	Structure (SMILES)	further results
59 (≈ 114 µM)	< 3			CC(C)(CC(O)(Cc1cc2cc(S(C)(=O)=O)ncc2[nH]1)C(F)(F)F)c1ccccc1S(C)(=O)=O (stereo not drawn)	
17 (≈ 35.2 µM)	44			CC(C)(C[C@@](O)(Cc1cc2cc(S(C)(=O)=O)ncc2[nH]1)C(F)(F)F)c1ccccc1C(N)=O	IC50 [3]: > 30 µM
> 100	> 300			CCS(=O)(=O)c1cc2cc(C[C@](O)(CC(C)(C)c3ccc(F)cc3C(N)=O)C(F)(F)F)[nH]c2cn1	
> 100	45			CC(C)(CC(O)(Cc1cc2cc(S(C)(=O)=O)ncc2[nH]1)C(F)(F)F)c1ccc(F)cc1C(N)=O (stereo not drawn)	IC50 [3]: > 30 µM
		19	53	CC(C)S(=O)(=O)c1cc2cc(CC(O)(CC(C)(C)c3ccc(F)cc3S(C)(=O)=O)C(F)(F)F)[nH]c2cn1 (stereo not drawn) [1,1,1-Trifluoro-4-(4-fluoro-2-methanesulfonylphenyl)-4-methyl-2-[5-(propane-2-sulfonyl)-1H-pyrrolo[2,3-c]pyridin-2-ylmethyl]pentan-2-ol]	
		7.4	89	CC(C)(CC(O)(Cc1cc2cc(S(C)(=O)=O)ncc2[nH]1)C(F)(F)F)c1cccc2c1S(=O)(=O)C=C2 (stereo not drawn) [4-(1,1-Dioxo-1H-1λ^6-benzo[b]thiophen-7-yl)-1,1,1-trifluoro-2-(5-methanesulfonyl-1H-pyrrolo[2,3-c]pyridin-2-ylmethyl)-4-methylpentan-2-ol]	
		23	7	CC(C)(CC(O)(Cc1cc2cc(S(C)(=O)=O)ncc2[nH]1)C(F)(F)F)c1ccccc1Br (stereo not drawn) [4-(2-Bromophenyl)-1,1,1-trifluoro-2-(5-methanesulfonyl-1H-pyrrolo[2,3-c]pyridin-2-ylmethyl)-4-methylpentan-2-ol]	
		6	17	CC(C)S(=O)(=O)c1cc2cc(CC(O)(CC(C)(C)c3cc(Cl)ccc3S(C)(=O)=O)C(F)(F)F)[nH]c2cn1 (stereo not drawn) [4-(5-Chloro-2-methanesulfonylphenyl)-1,1,1-trifluoro-4-methyl-2-[5-(propane-2-sulfonyl)-1H-pyrrolo[2,3-c]pyridin-2-ylmethyl]pentan-2-ol]	
		5.6	7	CC(C)(CC(O)(Cc1cc2cc(S(C)(=O)=O)ncc2[nH]1)C(F)(F)F)c1cc(Br)ccc1O (stereo not drawn) [4-Bromo-2-[4,4,4-trifluoro-3-hydroxy-3-(5-methanesulfonyl-1H-pyrrolo[2,3-c]pyridin-2-ylmethyl)-1,1-dimethylbutyl]phenol]	
		6.5	6	CC(C)(C[C@@](O)(Cc1cc2cc(S(C)(=O)=O)ncc2[nH]1)C(F)(F)F)c1cc(Cl)cc2c1OCC2 [drawing 3, (R)-4-(5-Chloro-2,3-dihydrobenzofuran-7-yl)-1,1,1-trifluoro-2-(5-methanesulfonyl-1H-pyrrolo[2,3-c]pyridin-2-ylmethyl)-4-methylpentan-2-ol]	
	< 3			CC(C)(C[C@@](O)(Cc1cc2cc(S(C)(=O)=O)ncc2[nH]1)C(F)(F)F)c1cc(Cl)cc2c1OCC2 [drawing 95]	IC50 [3]: 9.4 µM; IC50 ([4]; Table 3, read-out: CYP3A4 Inhibition IC50): 6.5 µM
18 (≈ 31.7 µM)	11			CCS(=O)(=O)c1cc2cc(CC(O)(CC(C)(C)c3ccc(Cl)cc3S(C)(=O)=O)C(F)(F)F)[nH]c2cn1 (stereo not drawn) [drawing 98]	IC50 [3]: > 10 µM
52 (≈ 94.4 µM)	7			CCS(=O)(=O)c1cc2cc(CC(O)(CC(C)(C)c3ccc(F)cc3S(C)(=O)=O)C(F)(F)F)[nH]c2cn1 (stereo not drawn) [drawing 99]	IC50 [3]: > 30 µM
> 100	14			CC(C)(C[C@@](O)(Cc1cc2cc(S(C)(=O)=O)ncc2[nH]1)C(F)(F)F)c1ccc(F)cc1S(C)(=O)=O [drawing 100]	IC50 [3]: > 30 µM
